Common to all, as to test: Post-emergence test experiment (greenhouse pot, spray at 2-3 leaf stage)
Holding throughout (assay type): in vivo
Conditions in all cases: 1000 g/ha; post-emergence spray at 2-3 leaf stage; assessed after 3 weeks; fresh weight inhibition rate

The test system of one assay is Galium spurium. An excerpt:
(§1) The activity level standard of harmful plants destruction (i. e. growth inhibition rate) is as follows: • Level 5: the growth inhibition rate is greater than 85%; • Level 4: the growth inhibition rate is equal to or greater than 60% and less than 85%; • Level 3: the growth inhibition rate is equal to or greater than 40% and less than 60%; • Level 2: the growth inhibition rate is equal to or greater than 20% and less than 40%; • Level 1: the growth inhibition rate is equal to or greater than 5% and less than 20%; • Level 0: the growth inhibition rate is less than 5%;
(§2) The above described growth inhibition rate is fresh weight inhibition rate.
(§3) Post-emergence test experiment: Monocotyledonous and dicotyledonous weed seeds and main crop seeds (i. e. wheat, corn, rice, soybean, cotton, oilseed, millet and sorghum.) were put into a plastic pot loaded with soil. Then covered with 0.5-2 cm soil, the seeds were allowed to grow in good greenhouse environment. The test plants were treated at 2-3 leaf stage 2 weeks after sowing. The test compounds of the invention were dissolved with acetone respectively, then added with tween-80, and using 1.5 liters per hectare of an emulsible concentrate of methyl oleate as a synergist, and diluted by certain amount of water to certain concentration. The solution was sprayed to the plants with a sprayer. Then the plants were cultured for 3 weeks in the greenhouse, and the experiment result of weed controlling effect after 3 weeks was listed in tables 3-4.

A further assay has as its system Abutilon theophrasti.
Excerpt: as §1, §2, §3

Another assay deals with Monochoria vaginalis.
Excerpt: as §1, §2, §3

Turning to `Nc1c(Cl)c(F)nc(OC(CO)C(=O)OCc2ccccc2)c1Cl` (stereo not drawn) [Compound 48], the “Activity level (growth inhibition rate) Galium spurium” value in the assay with Galium spurium is recorded as 5 (Level 5: the growth inhibition rate is greater than 85%). Further, the “Activity level (growth inhibition rate) Abutilon theophrasti” value in the assay on Abutilon theophrasti is on record as 5 (Level 5: the growth inhibition rate is greater than 85%). In the assay on Monochoria vaginalis, the “Activity level (growth inhibition rate) Monochoria Vaginalis” value is 5 (Level 5: the growth inhibition rate is greater than 85%).

Take `Nc1c(Cl)c(F)nc(OC(C=O)C(=O)OCc2ccccc2)c1Cl` (stereo not drawn) [Compound 51]: in the assay on Galium spurium, the “Activity level (growth inhibition rate) Galium spurium” value is given as 5 (Level 5: the growth inhibition rate is greater than 85%). In the assay on Abutilon theophrasti, the “Activity level (growth inhibition rate) Abutilon theophrasti” value is on record as 5 (Level 5: the growth inhibition rate is greater than 85%). The “Activity level (growth inhibition rate) Monochoria Vaginalis” value in the assay on Monochoria vaginalis is recorded as 5 (Level 5: the growth inhibition rate is greater than 85%).

For the compound `Nc1c(Cl)c(F)nc(OC(C(=O)SCc2ccccc2)c2ccoc2)c1Cl` (stereo not drawn) [Compound 55], in the assay on Galium spurium, the “Activity level (growth inhibition rate) Galium spurium” value is on record as 5 (Level 5: the growth inhibition rate is greater than 85%). In addition, the “Activity level (growth inhibition rate) Abutilon theophrasti” value in the assay on Abutilon theophrasti is given as 5 (Level 5: the growth inhibition rate is greater than 85%). Further, the “Activity level (growth inhibition rate) Monochoria Vaginalis” value with Monochoria vaginalis was 5 (Level 5: the growth inhibition rate is greater than 85%).

As to `COCC(Oc1nc(F)c(Cl)c(N)c1Cl)C(=O)OCc1ccccc1` (stereo not drawn) [Compound 29], the “Activity level (growth inhibition rate) Galium spurium” value in the assay on Galium spurium is on record as 5 (Level 5: the growth inhibition rate is greater than 85%). Moreover, the “Activity level (growth inhibition rate) Abutilon theophrasti” value with Abutilon theophrasti is 5 (Level 5: the growth inhibition rate is greater than 85%). The “Activity level (growth inhibition rate) Monochoria Vaginalis” value in the assay with Monochoria vaginalis was 5 (Level 5: the growth inhibition rate is greater than 85%).

Turning to `C#CC(Oc1nc(F)c(Cl)c(N)c1Cl)C(=O)SCc1ccccc1` (stereo not drawn) [Compound 33], in the assay on Galium spurium, the “Activity level (growth inhibition rate) Galium spurium” value is given as 5 (Level 5: the growth inhibition rate is greater than 85%). Moreover, in the assay on Abutilon theophrasti, the “Activity level (growth inhibition rate) Abutilon theophrasti” value is reported as 5 (Level 5: the growth inhibition rate is greater than 85%). Further, the “Activity level (growth inhibition rate) Monochoria Vaginalis” value in the assay on Monochoria vaginalis was 5 (Level 5: the growth inhibition rate is greater than 85%).

As to `Nc1c(Cl)c(F)nc(OC(C(=O)OCc2ccccc2)c2ccn(C(F)F)n2)c1Cl` (stereo not drawn) [Compound 59], the “Activity level (growth inhibition rate) Galium spurium” value with Galium spurium is recorded as 5 (Level 5: the growth inhibition rate is greater than 85%). Further, the “Activity level (growth inhibition rate) Abutilon theophrasti” value in the assay on Abutilon theophrasti was 5 (Level 5: the growth inhibition rate is greater than 85%). Also, the “Activity level (growth inhibition rate) Monochoria Vaginalis” value in the assay with Monochoria vaginalis is 5 (Level 5: the growth inhibition rate is greater than 85%).

`Nc1c(Cl)c(F)nc(OC(CF)C(=O)SCc2ccccc2)c1Cl` (stereo not drawn) [Compound 38]: the “Activity level (growth inhibition rate) Galium spurium” value in the assay with Galium spurium is 5 (Level 5: the growth inhibition rate is greater than 85%). Further, in the assay with Abutilon theophrasti, the “Activity level (growth inhibition rate) Abutilon theophrasti” value was 5 (Level 5: the growth inhibition rate is greater than 85%). Also, the “Activity level (growth inhibition rate) Monochoria Vaginalis” value in the assay with Monochoria vaginalis is 5 (Level 5: the growth inhibition rate is greater than 85%).

With `COCCC(Oc1nc(F)c(Cl)c(N)c1Cl)C(=O)SCc1ccccc1` (stereo not drawn) [Compound 30], the “Activity level (growth inhibition rate) Galium spurium” value with Galium spurium was 5 (Level 5: the growth inhibition rate is greater than 85%). For the same compound, the “Activity level (growth inhibition rate) Abutilon theophrasti” value with Abutilon theophrasti is on record as 5 (Level 5: the growth inhibition rate is greater than 85%). The “Activity level (growth inhibition rate) Monochoria Vaginalis” value in the assay on Monochoria vaginalis was 5 (Level 5: the growth inhibition rate is greater than 85%).

`CCC(Oc1nc(F)c(Cl)c(N)c1Cl)C(=O)OCc1ccccc1` (stereo not drawn) [Compound 25]: in the assay with Galium spurium, the “Activity level (growth inhibition rate) Galium spurium” value is listed as 5 (Level 5: the growth inhibition rate is greater than 85%). In addition, the “Activity level (growth inhibition rate) Abutilon theophrasti” value in the assay with Abutilon theophrasti is recorded as 5 (Level 5: the growth inhibition rate is greater than 85%). Also, the “Activity level (growth inhibition rate) Monochoria Vaginalis” value with Monochoria vaginalis is 5 (Level 5: the growth inhibition rate is greater than 85%).

As for `Nc1c(Cl)c(F)nc(OC(C(=O)OCc2ccccc2)c2cccnc2)c1Cl` (stereo not drawn) [Compound 64], in the assay on Galium spurium, the “Activity level (growth inhibition rate) Galium spurium” value is on record as 5 (Level 5: the growth inhibition rate is greater than 85%). Moreover, the “Activity level (growth inhibition rate) Abutilon theophrasti” value in the assay with Abutilon theophrasti is on record as 5 (Level 5: the growth inhibition rate is greater than 85%). Also, in the assay with Monochoria vaginalis, the “Activity level (growth inhibition rate) Monochoria Vaginalis” value was 5 (Level 5: the growth inhibition rate is greater than 85%).

As to `C=CC(Oc1nc(F)c(Cl)c(N)c1Cl)C(=O)OCc1ccccc1` (stereo not drawn) [Compound 32], the “Activity level (growth inhibition rate) Galium spurium” value in the assay on Galium spurium is recorded as 5 (Level 5: the growth inhibition rate is greater than 85%). In addition, in the assay with Abutilon theophrasti, the “Activity level (growth inhibition rate) Abutilon theophrasti” value was 5 (Level 5: the growth inhibition rate is greater than 85%). Also, in the assay with Monochoria vaginalis, the “Activity level (growth inhibition rate) Monochoria Vaginalis” value is 5 (Level 5: the growth inhibition rate is greater than 85%).

In the case of `COC(=O)C(Oc1nc(F)c(Cl)c(N)c1Cl)C(=O)OCc1ccccc1` (stereo not drawn) [Compound 52], the “Activity level (growth inhibition rate) Galium spurium” value in the assay with Galium spurium is reported as 5 (Level 5: the growth inhibition rate is greater than 85%). Moreover, in the assay on Abutilon theophrasti, the “Activity level (growth inhibition rate) Abutilon theophrasti” value was 5 (Level 5: the growth inhibition rate is greater than 85%). Besides, the “Activity level (growth inhibition rate) Monochoria Vaginalis” value with Monochoria vaginalis is on record as 5 (Level 5: the growth inhibition rate is greater than 85%).

As for `Nc1c(Cl)c(F)nc(OC(C(=O)OCc2ccccc2)c2ccc3ccccc3c2)c1Cl` (stereo not drawn) [Compound 66], in the assay with Galium spurium, the “Activity level (growth inhibition rate) Galium spurium” value is 5 (Level 5: the growth inhibition rate is greater than 85%). Besides, the “Activity level (growth inhibition rate) Abutilon theophrasti” value in the assay with Abutilon theophrasti is 5 (Level 5: the growth inhibition rate is greater than 85%). The “Activity level (growth inhibition rate) Monochoria Vaginalis” value in the assay with Monochoria vaginalis was 5 (Level 5: the growth inhibition rate is greater than 85%).

As to `Cc1nn(C)cc1C(Oc1nc(F)c(Cl)c(N)c1Cl)C(=O)SCc1ccccc1` (stereo not drawn) [Compound 58], in the assay on Galium spurium, the “Activity level (growth inhibition rate) Galium spurium” value is on record as 5 (Level 5: the growth inhibition rate is greater than 85%). Besides, the “Activity level (growth inhibition rate) Abutilon theophrasti” value with Abutilon theophrasti is 5 (Level 5: the growth inhibition rate is greater than 85%). For the same compound, the “Activity level (growth inhibition rate) Monochoria Vaginalis” value with Monochoria vaginalis is on record as 5 (Level 5: the growth inhibition rate is greater than 85%).

Consider `Nc1c(Cl)c(F)nc(OC(Cl)C(=O)OCc2ccccc2)c1Cl` (stereo not drawn) [Compound 35], for which the “Activity level (growth inhibition rate) Galium spurium” value in the assay on Galium spurium is reported as 5 (Level 5: the growth inhibition rate is greater than 85%). In addition, the “Activity level (growth inhibition rate) Abutilon theophrasti” value in the assay with Abutilon theophrasti is on record as 5 (Level 5: the growth inhibition rate is greater than 85%). Moreover, the “Activity level (growth inhibition rate) Monochoria Vaginalis” value in the assay with Monochoria vaginalis is listed as 5 (Level 5: the growth inhibition rate is greater than 85%).

Turning to `CCCC(Oc1nc(F)c(Cl)c(N)c1Cl)C(=O)SCc1ccccc1` (stereo not drawn) [Compound 26], the “Activity level (growth inhibition rate) Galium spurium” value in the assay on Galium spurium is listed as 5 (Level 5: the growth inhibition rate is greater than 85%). Besides, in the assay with Abutilon theophrasti, the “Activity level (growth inhibition rate) Abutilon theophrasti” value was 5 (Level 5: the growth inhibition rate is greater than 85%). For the same compound, the “Activity level (growth inhibition rate) Monochoria Vaginalis” value in the assay with Monochoria vaginalis is listed as 5 (Level 5: the growth inhibition rate is greater than 85%).

Consider `Nc1c(Cl)c(F)nc(OC(C(=O)OCc2ccccc2)C2CC2)c1Cl` (stereo not drawn) [Compound 28], for which, in the assay with Galium spurium, the “Activity level (growth inhibition rate) Galium spurium” value is 5 (Level 5: the growth inhibition rate is greater than 85%). Further, in the assay on Abutilon theophrasti, the “Activity level (growth inhibition rate) Abutilon theophrasti” value is given as 5 (Level 5: the growth inhibition rate is greater than 85%). The “Activity level (growth inhibition rate) Monochoria Vaginalis” value in the assay on Monochoria vaginalis is 5 (Level 5: the growth inhibition rate is greater than 85%).

Regarding `Nc1c(Cl)c(F)nc(OC(C(=O)OCc2ccccc2)c2cccc(Cl)c2)c1Cl` (stereo not drawn) [Compound 62], the “Activity level (growth inhibition rate) Galium spurium” value in the assay on Galium spurium is recorded as 5 (Level 5: the growth inhibition rate is greater than 85%). Besides, the “Activity level (growth inhibition rate) Abutilon theophrasti” value in the assay with Abutilon theophrasti was 5 (Level 5: the growth inhibition rate is greater than 85%). Besides, in the assay with Monochoria vaginalis, the “Activity level (growth inhibition rate) Monochoria Vaginalis” value was 5 (Level 5: the growth inhibition rate is greater than 85%).

`Nc1c(Cl)c(F)nc(OC(C(=O)SCc2ccccc2)c2ccc(C(F)(F)F)cc2)c1Cl` (stereo not drawn) [Compound 61]: the “Activity level (growth inhibition rate) Galium spurium” value with Galium spurium is given as 5 (Level 5: the growth inhibition rate is greater than 85%). Moreover, the “Activity level (growth inhibition rate) Abutilon theophrasti” value with Abutilon theophrasti is 5 (Level 5: the growth inhibition rate is greater than 85%). Also, in the assay on Monochoria vaginalis, the “Activity level (growth inhibition rate) Monochoria Vaginalis” value was 5 (Level 5: the growth inhibition rate is greater than 85%).

In the case of `Nc1c(Cl)c(F)nc(OC(N)C(=O)OCc2ccccc2)c1Cl` (stereo not drawn) [Compound 45], the “Activity level (growth inhibition rate) Galium spurium” value in the assay with Galium spurium is on record as 5 (Level 5: the growth inhibition rate is greater than 85%). For the same compound, the “Activity level (growth inhibition rate) Abutilon theophrasti” value in the assay with Abutilon theophrasti is listed as 5 (Level 5: the growth inhibition rate is greater than 85%). The “Activity level (growth inhibition rate) Monochoria Vaginalis” value in the assay with Monochoria vaginalis is recorded as 5 (Level 5: the growth inhibition rate is greater than 85%).

For `Nc1c(Cl)c(F)nc(OC(CCCl)C(=O)OCc2ccccc2)c1Cl` (stereo not drawn) [Compound 40], the “Activity level (growth inhibition rate) Galium spurium” value with Galium spurium was 5 (Level 5: the growth inhibition rate is greater than 85%). In the assay with Abutilon theophrasti, the “Activity level (growth inhibition rate) Abutilon theophrasti” value was 5 (Level 5: the growth inhibition rate is greater than 85%). Moreover, the “Activity level (growth inhibition rate) Monochoria Vaginalis” value with Monochoria vaginalis was 5 (Level 5: the growth inhibition rate is greater than 85%).

In the case of `Nc1c(Cl)c(F)nc(OC(C(=O)OCc2ccccc2)[N+](=O)[O-])c1Cl` (stereo not drawn) [Compound 49], the “Activity level (growth inhibition rate) Galium spurium” value in the assay with Galium spurium is 5 (Level 5: the growth inhibition rate is greater than 85%). In addition, the “Activity level (growth inhibition rate) Abutilon theophrasti” value with Abutilon theophrasti is given as 5 (Level 5: the growth inhibition rate is greater than 85%). Also, the “Activity level (growth inhibition rate) Monochoria Vaginalis” value in the assay with Monochoria vaginalis is recorded as 5 (Level 5: the growth inhibition rate is greater than 85%).

Values taken from patent US12049450B2, “Pyridyloxy-carboxylate derivative and preparation method therefor, herbicidal composition, and use” (Qingdao Kingagroot Chemical Compound Co., Ltd., priority 2018, dated 2024).
